Test results reported in patent US7262280B1, “G-protein fusion receptors and constructs encoding same” (NPS Pharmaceuticals, Inc., priority 1998, dated 2007).

Legend:
Assay type in all cases: cell-based
[1] = biological target: T1, chimeric CaR/GABABR2 (CaR extracellular and transmembrane domains, and intracellular GABABR2 domain) (Homo sapiens, UniProt O75899+P41180); assay: Calcium-activated chloride current in Xenopus oocytes co-injected with chimeric CaR/GABABR2 RNA and Gα15 RNA; settings: 100 μM, voltage-clamped, 72-hour incubation, FIG. 8
T1 construct: chimeric CaR/GABABR2 (CaR extracellular and transmembrane domains, and intracellular GABABR2 domain); GABABR2 intracellular domain (fusion partner replacing the CaR tail); expressed in transfected cells; host or cells: Xenopus oocytes injected with in vitro-transcribed RNA
T1 sequence (P41180+O75899 with tags, fused parts or gaps): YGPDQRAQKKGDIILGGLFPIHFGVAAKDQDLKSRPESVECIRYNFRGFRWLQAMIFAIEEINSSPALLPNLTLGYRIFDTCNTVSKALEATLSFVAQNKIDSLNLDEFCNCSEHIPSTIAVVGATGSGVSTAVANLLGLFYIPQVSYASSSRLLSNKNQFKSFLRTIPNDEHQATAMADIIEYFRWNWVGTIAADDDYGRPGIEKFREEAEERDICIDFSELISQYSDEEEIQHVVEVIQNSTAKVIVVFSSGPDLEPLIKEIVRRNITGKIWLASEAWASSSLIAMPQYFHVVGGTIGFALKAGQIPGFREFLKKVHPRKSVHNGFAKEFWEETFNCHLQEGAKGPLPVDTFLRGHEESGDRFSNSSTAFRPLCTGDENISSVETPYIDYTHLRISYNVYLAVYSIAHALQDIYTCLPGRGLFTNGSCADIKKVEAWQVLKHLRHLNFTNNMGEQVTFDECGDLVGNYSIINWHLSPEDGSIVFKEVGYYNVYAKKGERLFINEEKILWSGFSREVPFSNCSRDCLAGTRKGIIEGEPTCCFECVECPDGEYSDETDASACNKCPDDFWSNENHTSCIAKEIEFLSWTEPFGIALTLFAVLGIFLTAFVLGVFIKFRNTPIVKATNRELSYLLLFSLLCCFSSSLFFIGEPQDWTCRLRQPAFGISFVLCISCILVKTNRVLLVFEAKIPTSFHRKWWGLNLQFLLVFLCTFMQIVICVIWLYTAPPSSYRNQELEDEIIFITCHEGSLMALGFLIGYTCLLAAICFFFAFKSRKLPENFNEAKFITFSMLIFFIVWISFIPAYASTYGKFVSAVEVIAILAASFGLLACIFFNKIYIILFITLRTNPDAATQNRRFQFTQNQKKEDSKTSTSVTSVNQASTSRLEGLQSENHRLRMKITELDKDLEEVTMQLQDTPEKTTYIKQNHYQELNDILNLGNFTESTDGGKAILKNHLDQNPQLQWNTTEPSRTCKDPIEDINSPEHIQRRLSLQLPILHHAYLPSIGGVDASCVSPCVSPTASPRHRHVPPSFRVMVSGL
Procedure: FIG. 8 illustrates the ability of a chimeric CaR/GABABR2 (CaR extracellular and transmembrane domains, and intracellular GABABR2 domain) to transduce a signal. Signal production was measured by detecting an increase in the calcium-activated chloride current. The line in the middle of the increase signifies a wash step.
In vitro-transcribed RNA (7 ng) encoding a chimeric CaR/GABABR2 (CaR extracellular and transmembrane domains, and intracellular GABABR2 domain) was co-injected with in vitro-transcribed RNA (2 ng) encoding Gα15 into Xenopus oocytes. Following a 72-hour incubation, the oocytes were voltage-clamped using standard electrophysiological techniques (B. Hille, Ionic Channels of Exictable Membranes, pp. 30-33, Sinauer Associates, Inc., Sunderland, Ma., 1992). Activation of the chimeric receptor was detected by increases in the calcium-activated chloride current.
In this assay, the Gα15 subunit acts to promote signal transduction through intracellular pathways that mobilize intracellular Ca^++.

CaR/mGluR2*Gqi5 = biological target: T2, CaR/mGluR2*Gqi5 (Homo sapiens, UniProt P41180); assay: Calcium-activated chloride current in Xenopus oocytes injected with G-protein fusion receptor cRNA; settings: 100 μM, Xenopus laevis oocytes, holding −60 mV, FIG. 15
T2 construct: expressed in transfected cells; host or cells: Xenopus laevis oocytes injected with fusion receptor cRNA
Procedure: (§1) The different G-protein fusion receptors used in this example were as follows: mGluR2//CaR*Gqi5 (SEQ. ID. NO. 37), CaR/mGluR2*Gqi5 (SEQ. ID. NO. 33), and mGluR8//CaR*Gqi5 SEQ. ID. NO. 41.
(§2) Oocytes suitable for injection were obtained from adult female Xenopus laevis toads using procedures described in C. J. Marcus-Sekura and M. J. M. Hitchcock, Methods in Enzymology, Vol. 152 (1987).
(§3) Receptor fusion cRNAs were dissolved in water and 50 nl (12.5 ng/oocyte) were injected into individual oocytes. Following injection, oocytes were incubated at 16° C. in MBS containing 1 mM CaCl2 for two to seven days prior to electrophysiological recording.
(§4) Test substances were applied by superfusion at a flow rate of about 5 ml/minute. Receptor fusion activation was determined by measuring the increase in calcium-activated chloride current (ICl). Increases in ICl were quantified by measuring the peak inward current stimulated by activating agent, relative to the holding current at −60 mV. […] Application of 100 μM Gd^3+ activated the CaR/mGluR2*Gqi5.

mGluR2//CaR*Gαqi5 = mGluR2//CaR*Gαqi5 (Homo sapiens, UniProt Q14416, L8P); assay: as above; settings: 100 μM, Xenopus laevis oocytes, holding −60 mV, FIG. 15
mGluR8//CaR*Gαqi5 = biological target: T3, mGluR8//CaR*Gαqi5 (Homo sapiens, UniProt O00222); assay: as above; settings: 100 μM, Xenopus laevis oocytes, holding −60 mV, FIG. 15
T3 construct: ID; NO; 41; expressed in transfected cells; host or cells: Xenopus laevis oocytes injected with fusion receptor cRNA
Procedure: as §1, §2, §3, §4

T2 sequence (P41180 with tags, fused parts or gaps): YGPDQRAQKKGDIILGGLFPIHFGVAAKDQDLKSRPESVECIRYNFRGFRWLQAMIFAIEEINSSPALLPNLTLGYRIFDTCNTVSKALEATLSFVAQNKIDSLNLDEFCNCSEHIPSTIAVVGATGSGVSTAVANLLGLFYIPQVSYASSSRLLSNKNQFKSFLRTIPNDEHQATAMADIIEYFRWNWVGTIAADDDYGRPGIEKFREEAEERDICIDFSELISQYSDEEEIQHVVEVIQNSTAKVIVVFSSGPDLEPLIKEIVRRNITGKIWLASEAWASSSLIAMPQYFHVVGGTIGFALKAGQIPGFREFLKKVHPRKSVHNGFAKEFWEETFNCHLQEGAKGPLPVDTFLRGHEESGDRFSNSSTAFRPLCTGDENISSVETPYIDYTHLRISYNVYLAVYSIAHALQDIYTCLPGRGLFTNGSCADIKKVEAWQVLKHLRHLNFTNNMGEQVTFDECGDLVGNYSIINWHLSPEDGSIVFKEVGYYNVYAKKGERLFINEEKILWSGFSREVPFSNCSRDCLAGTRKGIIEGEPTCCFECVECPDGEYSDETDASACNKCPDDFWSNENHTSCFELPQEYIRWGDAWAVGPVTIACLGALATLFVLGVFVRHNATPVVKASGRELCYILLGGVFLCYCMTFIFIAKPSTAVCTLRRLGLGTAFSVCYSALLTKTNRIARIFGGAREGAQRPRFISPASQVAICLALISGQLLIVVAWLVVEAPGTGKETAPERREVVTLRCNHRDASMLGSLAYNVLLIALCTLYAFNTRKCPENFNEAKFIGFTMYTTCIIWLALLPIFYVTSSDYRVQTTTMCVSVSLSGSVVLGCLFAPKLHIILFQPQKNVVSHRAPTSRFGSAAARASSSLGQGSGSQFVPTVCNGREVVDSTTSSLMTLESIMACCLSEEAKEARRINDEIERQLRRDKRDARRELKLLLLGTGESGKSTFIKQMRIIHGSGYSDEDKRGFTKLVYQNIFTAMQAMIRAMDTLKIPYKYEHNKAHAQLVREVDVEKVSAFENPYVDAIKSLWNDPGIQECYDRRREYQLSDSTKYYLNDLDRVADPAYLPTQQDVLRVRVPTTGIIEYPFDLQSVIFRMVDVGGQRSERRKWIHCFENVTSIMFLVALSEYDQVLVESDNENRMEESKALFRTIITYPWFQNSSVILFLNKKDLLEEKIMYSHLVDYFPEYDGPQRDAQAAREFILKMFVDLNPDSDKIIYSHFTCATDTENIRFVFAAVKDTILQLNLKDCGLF
T3 sequence (O00222 with tags, fused parts or gaps): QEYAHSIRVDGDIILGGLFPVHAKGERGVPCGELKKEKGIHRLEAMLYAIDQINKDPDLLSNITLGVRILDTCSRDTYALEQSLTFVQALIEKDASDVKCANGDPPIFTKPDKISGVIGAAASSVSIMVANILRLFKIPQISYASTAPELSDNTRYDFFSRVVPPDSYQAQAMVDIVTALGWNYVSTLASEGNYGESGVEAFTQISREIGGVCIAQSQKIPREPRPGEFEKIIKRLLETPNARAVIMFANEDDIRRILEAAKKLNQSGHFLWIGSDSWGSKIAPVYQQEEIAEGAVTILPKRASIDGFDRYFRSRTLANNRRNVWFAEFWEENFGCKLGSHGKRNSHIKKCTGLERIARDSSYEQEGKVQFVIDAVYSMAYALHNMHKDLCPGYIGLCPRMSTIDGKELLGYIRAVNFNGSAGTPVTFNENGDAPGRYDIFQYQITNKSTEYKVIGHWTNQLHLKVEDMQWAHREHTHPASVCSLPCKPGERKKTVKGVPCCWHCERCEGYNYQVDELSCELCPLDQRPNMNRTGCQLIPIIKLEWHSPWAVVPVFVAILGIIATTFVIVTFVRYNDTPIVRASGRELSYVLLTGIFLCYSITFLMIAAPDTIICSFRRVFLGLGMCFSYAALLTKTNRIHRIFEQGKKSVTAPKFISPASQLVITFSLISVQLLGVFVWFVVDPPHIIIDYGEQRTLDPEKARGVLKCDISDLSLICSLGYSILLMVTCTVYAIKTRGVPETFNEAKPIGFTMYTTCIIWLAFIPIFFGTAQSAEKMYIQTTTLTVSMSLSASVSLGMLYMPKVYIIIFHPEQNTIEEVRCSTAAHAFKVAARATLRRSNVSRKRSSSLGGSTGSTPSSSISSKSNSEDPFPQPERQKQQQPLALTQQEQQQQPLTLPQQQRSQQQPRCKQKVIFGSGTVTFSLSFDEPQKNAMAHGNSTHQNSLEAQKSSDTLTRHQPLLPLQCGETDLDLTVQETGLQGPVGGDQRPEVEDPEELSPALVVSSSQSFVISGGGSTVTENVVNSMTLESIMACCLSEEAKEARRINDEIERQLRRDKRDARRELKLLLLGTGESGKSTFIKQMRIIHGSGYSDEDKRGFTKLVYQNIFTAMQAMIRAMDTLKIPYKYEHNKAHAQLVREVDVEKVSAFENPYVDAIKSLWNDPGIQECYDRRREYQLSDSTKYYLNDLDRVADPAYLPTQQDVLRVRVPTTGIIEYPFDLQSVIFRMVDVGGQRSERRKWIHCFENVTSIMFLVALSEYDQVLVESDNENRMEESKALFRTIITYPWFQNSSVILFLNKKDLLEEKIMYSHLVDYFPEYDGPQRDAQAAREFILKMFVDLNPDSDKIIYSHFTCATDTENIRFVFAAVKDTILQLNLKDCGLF
mGluR2//CaR*Gαqi5, sequence (Q14416 with tags, fused parts or gaps L8P): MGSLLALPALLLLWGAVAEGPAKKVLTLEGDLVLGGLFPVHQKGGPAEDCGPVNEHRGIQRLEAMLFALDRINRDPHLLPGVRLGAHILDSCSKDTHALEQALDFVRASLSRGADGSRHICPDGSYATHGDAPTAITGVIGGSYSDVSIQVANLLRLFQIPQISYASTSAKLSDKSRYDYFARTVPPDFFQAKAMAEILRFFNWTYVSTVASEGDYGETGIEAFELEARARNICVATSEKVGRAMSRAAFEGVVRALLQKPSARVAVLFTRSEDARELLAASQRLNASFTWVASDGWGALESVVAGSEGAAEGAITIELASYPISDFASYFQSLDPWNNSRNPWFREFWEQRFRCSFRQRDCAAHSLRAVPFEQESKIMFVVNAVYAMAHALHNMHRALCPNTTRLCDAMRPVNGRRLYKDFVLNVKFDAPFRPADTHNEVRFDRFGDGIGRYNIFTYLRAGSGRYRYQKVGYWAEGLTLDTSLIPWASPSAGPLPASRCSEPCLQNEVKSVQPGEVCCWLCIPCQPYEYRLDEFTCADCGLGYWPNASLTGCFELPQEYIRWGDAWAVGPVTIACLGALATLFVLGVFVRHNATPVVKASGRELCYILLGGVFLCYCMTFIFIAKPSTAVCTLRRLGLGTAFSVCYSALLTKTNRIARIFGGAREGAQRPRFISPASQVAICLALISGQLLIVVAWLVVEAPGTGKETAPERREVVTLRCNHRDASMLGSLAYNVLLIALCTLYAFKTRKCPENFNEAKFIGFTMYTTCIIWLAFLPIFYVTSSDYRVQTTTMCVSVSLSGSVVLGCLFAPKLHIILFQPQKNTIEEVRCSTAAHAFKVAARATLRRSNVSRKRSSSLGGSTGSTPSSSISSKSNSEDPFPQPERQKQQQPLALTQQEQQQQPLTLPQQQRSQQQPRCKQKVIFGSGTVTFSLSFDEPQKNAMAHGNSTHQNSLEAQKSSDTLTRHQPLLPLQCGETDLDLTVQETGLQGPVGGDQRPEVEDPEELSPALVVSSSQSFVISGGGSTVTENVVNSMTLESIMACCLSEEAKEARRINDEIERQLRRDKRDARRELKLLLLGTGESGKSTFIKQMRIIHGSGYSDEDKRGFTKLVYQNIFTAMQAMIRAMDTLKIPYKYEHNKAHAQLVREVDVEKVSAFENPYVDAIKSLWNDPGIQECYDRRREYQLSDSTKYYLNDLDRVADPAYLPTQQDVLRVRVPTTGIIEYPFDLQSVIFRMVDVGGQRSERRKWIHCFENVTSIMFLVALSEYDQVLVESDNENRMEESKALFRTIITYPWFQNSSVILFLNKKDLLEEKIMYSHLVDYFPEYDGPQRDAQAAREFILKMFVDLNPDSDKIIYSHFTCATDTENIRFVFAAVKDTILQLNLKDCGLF

SMILES | activation of the chimeric receptor detected by increases in the calcium-activated chloride current [1] | receptor fusion activation, increase in calcium-activated chloride current (ICl) (CaR/mGluR2*Gqi5) | receptor fusion activation, increase in calcium-activated chloride current (ICl) (mGluR2//CaR*Gαqi5) | receptor fusion activation, increase in calcium-activated chloride current (ICl) (mGluR8//CaR*Gαqi5)
[Gd+3] [Gd^3+] | reversible, oscillatory increases in the calcium-activated chloride current | activated | – | –
N[C@@H](CCC(=O)O)C(=O)O [L-glutamate] | – | – | elicited a response | elicited a response
